Measured values from patent US20240368120A1 (Terns Pharmaceuticals, Inc., priority 2023, published 2024).

Target: T1, human GLP-1R receptor (Homo sapiens, UniProt P43220)
T1 construct: expressed in transfected cells
Assay: GLP-1R low expression cell assay (cAMP TR-FRET, CHO-K1_hGLP-1Rlow_clone10 cells)
Format: cell-based
Settings: for EC50: cAMP TR-FRET, 30 min at 25° C.; for Emax: maximum activation relative to control GLP-1 peptide agonist
In short: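 CHO-K1 cells stably expressing low surface human GLP-1R (clone10), 1,000 cells/well, exposed to 10-point 3-fold compound dilutions for 30 min at 25 °C. cAMP measured by TR-FRET (Eu-cAMP tracer/ULight-anti-cAMP, 15 min). EC50 from Hill fit of duplicate percent activation relative to a parallel GLP-1 control agonist.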

T1 sequence (P43220 24-463): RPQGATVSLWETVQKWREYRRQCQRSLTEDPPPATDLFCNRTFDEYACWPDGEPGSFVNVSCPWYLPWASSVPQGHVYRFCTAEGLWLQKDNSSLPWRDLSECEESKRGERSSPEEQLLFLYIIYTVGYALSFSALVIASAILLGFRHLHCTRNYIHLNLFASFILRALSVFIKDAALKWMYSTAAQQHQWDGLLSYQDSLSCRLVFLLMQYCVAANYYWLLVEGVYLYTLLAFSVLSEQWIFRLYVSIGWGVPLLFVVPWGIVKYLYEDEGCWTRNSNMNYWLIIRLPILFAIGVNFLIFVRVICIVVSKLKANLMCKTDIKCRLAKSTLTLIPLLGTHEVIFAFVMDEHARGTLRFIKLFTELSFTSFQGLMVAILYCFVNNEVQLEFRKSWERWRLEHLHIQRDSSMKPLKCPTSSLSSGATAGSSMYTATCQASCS

| Compound | EC50 [µM] | Emax [%] |
| --- | --- | --- |
| Cn1c(CN2CCC(c3cccc(OCc4ccc(C5COC5)cc4F)n3)CC2)nc2c(OC(F)F)cc(C(=O)O)cc21 [Compound 141, 4-(Difluoromethoxy)-2-((4-(6-((2-fluoro-4-(oxetan-3-yl)benzyl)oxy)pyridin-2-yl)piperidin-1-yl)methyl)-1-methyl-1H-benzo[d]imidazole-6-carboxylic acid] | 0.01 to 0.1 | > 85 |
| COc1c(F)c(C(=O)O)cc2nc(CN3CCC(c4cccc(OCc5ccc(Cl)cc5F)n4)CC3)n(C)c12 [Compound 338, 2-((4-(6-((4-Chloro-2-fluorobenzyl)oxy)pyridin-2-yl)piperidin-1-yl)methyl)-6-fluoro-7-methoxy-1-methyl-1H-benzo[d]imidazole-5-carboxylic acid] | > 1 | 50 to 85 |
| Cn1c(CN2CCC(c3cccc(OCc4ccc(C#N)cc4F)n3)CC2)nc2c3c(c(C(=O)O)cc21)OCCO3 [Compound 289, 2-((4-(6-((4-Cyano-2-fluorobenzyl)oxy)pyridin-2-yl)piperidin-1-yl)methyl)-3-methyl-7,8-dihydro-3H-[1,4]dioxino[2′,3′:3,4]benzo[1,2-d]imidazole-5-carboxylic acid] | 0.1 to 1 | > 85 |
| Cn1c(CN2CCC(c3cccc(OCc4ccc(Cl)cc4F)n3)CC2)nc2c(OCCF)cc(C(=O)O)cc21 [Compound 170, 2-((4-(6-((4-Chloro-2-fluorobenzyl)oxy)pyridin-2-yl)piperidin-1-yl)methyl)-4-(2-fluoroethoxy)-1-methyl-1H-benzo[d]imidazole-6-carboxylic acid] | < 0.01 | > 85 |
| Cn1c(Cc2ccc(Oc3cccc(COc4ccc(Cl)cc4F)n3)cc2F)nc2c(OC(F)F)cc(C(=O)O)cc21 [Compound 367, 2-(4-((6-((4-Chloro-2-fluorophenoxy)methyl)pyridin-2-yl)oxy)-2-fluorobenzyl)-4-(difluoromethoxy)-1-methyl-1H-benzo[d]imidazole-6-carboxylic acid] | > 1 | > 85 |
| COCCc1nc(C(=O)O)cc2c1nc(CN1CCC(c3cccc(OCc4ccc(C#N)cc4F)n3)CC1)n2C [Compound 107, 2-((4-(6-((4-cyano-2-fluorobenzyl)oxy)pyridin-2-yl)piperidin-1-yl)methyl)-4-(2-methoxyethyl)-1-methyl-1H-imidazo[4,5-c]pyridine-6-carboxylic acid] | > 1 | 50 to 85 |
| CC(C)(C)Oc1cc(C(=O)O)cc2c1nc(CN1CCC(c3cccc(OCc4ccc(C#N)cc4F)n3)CC1)n2C[C@@H]1CCO1 [Compound 109, (S)-4-(tert-Butoxy)-2-((4-(6-((4-cyano-2-fluorobenzyl)oxy)pyridin-2-yl)piperidin-1-yl)methyl)-1-(oxetan-2-ylmethyl)-1H-benzo[d]imidazole-6-carboxylic acid] | < 0.01 | > 85 |
| Cn1c(CN2CCC(c3cccc(OCc4ccc(C#N)cc4F)n3)CC2)nc2c(OC(F)(F)F)cc(C(=O)O)cc21 [Compound 125, 2-((4-(6-((4-Cyano-2-fluorobenzyl)oxy)pyridin-2-yl)piperidin-1-yl)methyl)-1-methyl-4-(trifluoromethoxy)-1H-benzo[d]imidazole-6-carboxylic acid] | 0.01 to 0.1 | > 85 |
| Cn1c(CN2CCC(c3cccc(OCc4ccc(Cl)cc4F)n3)CC2)nc2c(OC(F)F)cc(-c3nnc(C(F)(F)F)[nH]3)cc21 [Compound 232, 2-((4-(6-((4-Chloro-2-fluorobenzyl)oxy)pyridin-2-yl)piperidin-1-yl)methyl)-4-(difluoromethoxy)-1-methyl-6-(5-(trifluoromethyl)-4H-1,2,4-triazol-3-yl)-1H-benzo[d]imidazole] | > 1 | 25 to 50 |
| [2H]C([2H])(C)Oc1cc(C(=O)O)cc2c1nc(CN1CCC(c3cccc(OC([2H])([2H])c4ccc(Cl)cc4F)n3)CC1)n2C [Compound 286, 2-((4-(6-((4-Chloro-2-fluorophenyl)methoxy-d2)pyridin-2-yl)piperidin-1-yl)methyl)-4-(ethoxy-1,1-d2)-1-methyl-1H-benzo[d]imidazole-6-carboxylic acid] | < 0.01 | > 85 |
| CC(C)Oc1cc(C(=O)O)cc2c1nc(CN1CCC(c3cccc4c3O[C@@](C)(c3ccc(Cl)cn3)O4)CC1)n2C [Compound 84, (S)-2-((4-(2-(5-Chloropyridin-2-yl)-2-methylbenzo[d][1,3]dioxol-4-yl)piperidin-1-yl)methyl)-4-isopropoxy-1-methyl-1H-benzo[d]imidazole-6-carboxylic acid] | < 0.01 | > 85 |
| N#Cc1ccc(COc2cccc(C3CCN(Cc4nc5c(OC(F)F)cc(C(=O)O)cc5n4CC4(C#N)CC4)CC3)n2)c(F)c1 [Compound 105, 2-((4-(6-((4-Cyano-2-fluorobenzyl)oxy)pyridin-2-yl)piperidin-1-yl)methyl)-1-((1-cyanocyclopropyl)methyl)-4-(difluoromethoxy)-1H-benzo[d]imidazole-6-carboxylic acid] | < 0.01 | > 85 |
| Cn1c(CN2CCC(c3cccc(OCc4ccc(Cl)cc4F)n3)CC2)nc2c(O[C@H]3C[C@H](F)C3)cc(C(=O)O)cc21 [Compound 353, 2-((4-(6-((4-Chloro-2-fluorobenzyl)oxy)pyridin-2-yl)piperidin-1-yl)methyl)-4-((1r,3r)-3-fluorocyclobutoxy)-1-methyl-1H-benzo[d]imidazole-6-carboxylic acid] | 0.01 to 0.1 | > 85 |
| COc1cc(C#N)ccc1COc1cccc(C2CCN(Cc3nc4c(OC)cc(C(=O)O)cc4n3C)CC2)n1 [Compound 344, 2-((4-(6-((4-Cyano-2-methoxybenzyl)oxy)pyridin-2-yl)piperidin-1-yl)methyl)-4-methoxy-1-methyl-1H-benzo[d]imidazole-6-carboxylic acid] | < 0.01 | > 85 |
| COc1cc(C(=O)O)cc2c1nc([C@H](C)N1CCC(c3cccc(OCc4ccc(C#N)cc4F)n3)CC1)n2C[C@@H]1CCO1 [Compound 95, 2-((S)-1-(4-(6-((4-Cyano-2-fluorobenzyl)oxy)pyridin-2-yl)piperidin-1-yl)ethyl)-4-methoxy-1-(((S)-oxetan-2-yl)methyl)-1H-benzo[d]imidazole-6-carboxylic acid] | < 0.01 | > 85 |
| Cn1c(CN2CCC(c3c(F)cccc3OCc3ccc(C#N)cc3F)CC2)nc2c(OC(F)F)cc(C(=O)O)cc21 [Compound 146, 2-((4-(2-((4-Cyano-2-fluorobenzyl)oxy)-6-fluorophenyl)piperidin-1-yl)methyl)-4-(difluoromethoxy)-1-methyl-1H-benzo[d]imidazole-6-carboxylic acid] | > 1 | 50 to 85 |
| COc1cc(C(=O)O)cc2c1nc([C@@H](C)N1CCC(c3cccc(OCc4ccc(C#N)cc4F)n3)CC1)n2C [Compound 103, (R)-2-(1-(4-(6-((4-Cyano-2-fluorobenzyl)oxy)pyridin-2-yl)piperidin-1-yl)ethyl)-4-methoxy-1-methyl-1H-benzo[d]imidazole-6-carboxylic acid] | > 1 | 50 to 85 |
| CCOc1cc(C(=O)O)cc2c1nc(CN1CCC(c3cccc4c3OC[C@H](c3ccc(C#N)cc3F)O4)CC1)n2C [Compound 277, (S)-2-((4-(2-(4-Cyano-2-fluorophenyl)-2,3-dihydrobenzo[b][1,4]dioxin-5-yl)piperidin-1-yl)methyl)-4-ethoxy-1-methyl-1H-benzo[d]imidazole-6-carboxylic acid] | > 1 | 50 to 85 |
